Patent US20230355613A1, “METHODS FOR TREATING PANCREATIC DUCTAL ADENOCARCINOMA” (HEALTH RESEARCH, INC., priority 2022, published 2023)

Legend:
HPNE cells [1] = assay: Histone transcriptional read-through by RT-qPCR; format: cell-based, human
Text: (§1) JTE-607 induces RD-histone read-through preferentially in PDAC cells. […] It was sought to validate this transcriptional read-through phenomena experimentally by RT-qPCR. Two RD- and two RI-histones that show differences beyond their 3′ end boundaries were picked for experimental validation (FIGS. 13A and 13B). PCR primers were designed to amplify different regions within and beyond the boundaries of the 3′-UTR (FIG. 13C). […] However, the effect of JTE-607 on transcriptional read-through in HPNE cells was minimal (FIG. 5A). […] Because stable long-term knockdown can force cells to adapt, it was asked whether short-term knockdown of CPSF3 can recapitulate JTE-607 effect on transcriptional read-through. […] Improperly processed histone mRNAs fail to be exported into the cytoplasm for translation, leading to decreased protein levels. […] Next, it was determined whether histone dysregulation might be transcriptionally mediated by dysregulation of transcription factors at the levels of APA or gene expression. MotifMap, an integrative genome-wide map of regulatory motif sites, was used to find putative transcription factors regulating expression of RD histones. 51 transcription factors that have strong binding sites (1000 bp upstream of transcription start site; FDR<0.05) within RD histone promoters (Table S3 (attached as a Large Table)) were found. However, these histone transcription factors are neither APA altered nor differentially expressed upon JTE-607 treatment (FIGS. 13G and 13H). Taken together, these findings indicate that JTE-607 decreases RD histone expression by promoting transcriptional read-through.
(§2) RNA isolation and quantitative PCR. Cells were lysed with TRIzol reagent. RNA was isolated using Direct-zol RNA Miniprep. cDNA was synthesized using iScript cDNA Synthesis Kit. qPCR was conducted with SYBR Green PCR primers mixed with iTaq Universal SYBR Green Supermix and run on CFX connect systems (Bio-Rad). Data were analyzed in Microsoft Excel and graphed using GraphPad Prism (v 9.3.0).

Panc1 cells [2] = assay: Histone transcriptional read-through by RT-qPCR; format: cell-based, human
Text: as §1, §2

PDAC cells = assay: BrdU incorporation assay; format: cell-based; conditions: within 8 hours
Protocol: Finally, we sought to determine how JTE-607-mediated depletion of RD histones led to defects in cell viability. As RD histones are required for cell cycle progression, we assessed the effects of JTE-607 on cell cycle distribution. […] In contrast, JTE-607 arrested Panc1 and MiaPaCa2 PDAC cells in S-phase of the cell cycle within 24 hours (FIGS. 7A and 7B). To corroborate the impact of CPSF3 knockdown on cell cycle, CPSF3 was transiently knocked-down with siRNA in Panc1 and HPNE cells (FIGS. 13D, 7C). CPSF3 knockdown induced cell cycle arrest in Panc1 cells with minimal effect on HPNE cells (FIGS. 7D and 7E). However, unlike CPSF3 inhibition-induced cell cycle arrest at S-phase, CPSF3 knockdown cells arrested at G2. […] To more specifically investigate the timing and extent of S-phase arrest upon JTE-607 treatment, BrdU incorporation was examined in a time-dependent manner (FIG. 7F). […] This is in support of previous reports where histone defects slow the progression of cells during S-phase. Therefore, JTE-607 destabilizes chromatin and attenuates PDAC cell proliferation through S-phase cell cycle arrest.
BrdU incorporation assay. […] Cells were analyzed by flow cytometry immediately and a compensation step was performed. Data were analyzed by FCS Express software (v7.06.0015).

HPNE cells [3] = assay: Micrococcal Nuclease (MNase) assay of chromatin condensation; format: cell-based, human; conditions: compared with DMSO-treated cells
Protocol: (§3) Therefore, a Micrococcal Nuclease (MNase) assay was performed to assess relative chromatin condensation. In this assay, protein-free DNA is digested by MNase, producing DNA fragmentation patterns that are indicators of whether chromatin is in a condensed or relaxed state. […] To assess chromatin destabilization in a living cell, the HeLa-TI cell line model that has a silenced GFP reporter within a heterochromatic region of the genome was utilized. […] Therefore, GFP expression in HeLa-TI cells was monitored upon JTE-607 treatment by both fluorescence microscopy and flow cytometry.
(§4) Micrococcal digestion. Micrococcal Nuclease (MNase) was performed as previously described. Briefly, cells were trypsinized, washed with 1×RSB buffer (10 mM Tris HCL, pH 7.6; 15 mM NaCl; 1.5 mM MgCl2) and pelleted at 1000 rpm for 4 minutes at room temperature. Cell pellets were resuspended in 1×RSB buffer with 1% TritonX-100, homogenized with a loose pestle (5 strokes) and centrifuged for 5 minutes at 2000 rpm at 4° C. Pellets were washed two times with 1 ml of buffer A (10 mM Tris HCL, pH 7.6; 15 mM NaCl; 60 mM KCl; 0.34 M Sucrose; 0.1% B-mercaptoethanol; 0.15 mM Spermine; 0.5 mM Spermidine; 0.25 mM PMSF) and nuclei were pelleted at 160 g for 10 minutes at 4° C. Nuclei were resuspended in 1.5 mL of buffer A supplemented with 1 mM of CaCl2). Nuclear suspensions (500 μL) were digested with 200 U/mL Micrococcal nuclease at 37° C. at different time points.

Panc1 cells [4] = assay: as above; format: cell-based, human
Protocol: as §3, §4

[5] = tested on: human acute myeloid leukemia (AML) and Ewing's sarcoma cells; conditions: in vitro; cited from earlier work
HeLa-TI cells = assay: Silenced GFP reporter derepression (chromatin destabilization) by microscopy and flow cytometry; format: cell-based; conditions: dose- and time-dependent
Protocol: as §3

xenograft models = xenograft models in vivo; cited from earlier work
[6] = early or late time points (2 h, 24 h)

Question: For `CCOC(=O)[C@H](Cc1ccccc1)NC(=O)c1cc(Cl)c(OCCN2CCN(C)CC2)c(Cl)c1O` [JTE-607], which “transcriptional read-through of RD histones” value (HPNE cells [1]; 24 h treatment) is on record?
Answer: Its value is “minimal”.

Question: And the “transcriptional read-through of RI histones” value (HPNE cells [1]; [6])?
Answer: Its value is “did not induce transcriptional read-through”.

Question: And the “transcriptional read-through of RD histones” value (Panc1 cells [2]; 24 h treatment, normalized to DMSO)?
Answer: Its value is “up to −20 fold change”.

Question: And the “transcriptional read-through of RI histones” value (Panc1 cells [2]; [6])?
Answer: The value was “did not induce transcriptional read-through”.

Question: What about the “cell cycle arrest phase (BrdU incorporation)” value (PDAC cells) of the same molecule?
Answer: Its value is “early to mid S-phase”.

Question: What about the “chromatin digestion by MNase” value (HPNE cells [3]) of the same molecule?
Answer: The value was “no chromatin digestion”.

Question: And the “mononucleosomes released by MNase digestion” value (Panc1 cells [4]; after 30 minutes of incubation)?
Answer: Its value is ~4×10^3 normalized FU.

Question: And the “chromatin digestion by MNase” value (Panc1 cells [4]; compared with DMSO-treated cells)?
Answer: Its value is “rapid and complete chromatin digestion”.

Question: What about the apoptosis [5] of the same molecule?
Answer: Its apoptosis is “induces apoptosis”.

Question: What about the GFP expression (HeLa-TI cells) of the same molecule?
Answer: Its GFP expression is “induced GFP expression to levels comparable with CBL0137”.

Question: And the “survival of tumor-bearing mice” value (xenograft models)?
Answer: The value was “prolongs survival”.
